Measurements from PubChem BioAssay AID194 (DTP/NCI, 2004).
Results filed as inconclusive are left out. How the source made its calls: active means survival T/C of 150% or more; inactive means T/C below 125% in these data.

Test system: BDF1 mice, B16 melanoma s.c., survival/tumor T/C
Test: NCI In Vivo Anticancer Drug Screen. Data for tumor model B16 Melanoma (subcutaneous) in B6D2F1 (BDF1) mice
Settings: endpoint: median survival time, higher = longer survival
Protocol: The antitumor activity of compounds was measured in mice bearing transplantable tumors. Survival or tumor size were measured and the results are expressed as the measurement made in the treated group (T) divided by the measurement made in the vehicle treated control group (C). The tumor model used in this assay is B16 Melanoma (subcutaneous) in B6D2F1 (BDF1) mice

Measured: T/C

CC(CN1CC(=O)NC(=O)C1)N1CC(=O)NC(=O)C1 (centres undefined)
inactive: dose: 6.25 mg/kg/injection, schedule: Q04DX003 (ip), vehicle: saline 97 % of control | dose: 8.0 mg/kg/injection, schedule: Q01DX009 (ip), vehicle: Klucel (hydroxypropylcellulose) (HPC) 113 % of control | dose: 12.5 mg/kg/injection, schedule: Q04DX003 (ip), vehicle: saline 97 % of control | dose: 15.0 mg/kg/injection, schedule: Q01DX009 (ip), vehicle: saline 122 % of control | dose: 16.0 mg/kg/injection, schedule: Q01DX009 (ip), vehicle: Klucel (hydroxypropylcellulose) (HPC) 118 % of control | dose: 25.0 mg/kg/injection, schedule: Q04DX003 (ip), vehicle: saline 102 % of control | dose: 30.0 mg/kg/injection, schedule: Q01DX009 (ip), vehicle: saline 95 % of control | dose: 50.0 mg/kg/injection, schedule: Q04DX003 (ip), vehicle: saline 111 % of control | dose: 60.0 mg/kg/injection, schedule: Q01DX009 (ip), vehicle: saline 110 % of control | dose: 64.0 mg/kg/injection, schedule: Q01DX009 (ip), vehicle: Klucel (hydroxypropylcellulose) (HPC) 119 % of control | dose: 120.0 mg/kg/injection, schedule: Q01DX009 (ip), vehicle: saline 109 % of control | dose: 200.0 mg/kg/injection, schedule: Q04DX003 (ip), vehicle: saline 105 % of control | dose: 400.0 mg/kg/injection, schedule: Q04DX003 (ip), vehicle: saline 120 % of control

COc1cc2c(c(OC)c1OC)-c1ccc(OC)c(=O)cc1[C@@H](NC(C)=O)CC2
inactive: dose: 63.0 micrograms/kg/injection, schedule: Q01DX009 (ip), vehicle: saline 95 % of control | dose: 125.0 micrograms/kg/injection, schedule: Q01DX009 (ip), vehicle: saline 116 % of control | dose: 250.0 micrograms/kg/injection, schedule: Q01DX009 (ip), vehicle: saline 105 % of control | dose: 500.0 micrograms/kg/injection, schedule: Q01DX009 (ip), vehicle: saline 103 % of control

NC(=O)c1[nH]nc(C2OC(CO)C(O)C2O)c1O (centres undefined)
inactive: dose: 0.12 mg/kg/injection, schedule: Q01DX009 (ip), vehicle: saline 108 % of control | dose: 0.25 mg/kg/injection, schedule: Q01DX009 (ip), vehicle: saline 109 % of control | dose: 0.5 mg/kg/injection, schedule: Q01DX009 (ip), vehicle: saline 106 % of control | dose: 0.67 mg/kg/injection, schedule: Q01DX009 (ip), vehicle: saline 102 % of control | dose: 1.25 mg/kg/injection, schedule: Q01DX009 (ip), vehicle: saline 87 % of control

CC1(C)N=C(N)N=C(N)N1c1ccc(OCC(=O)N2CCOCC2)c(Cl)c1
inactive: dose: 50.0 mg/kg/injection, schedule: Q01DX009 (ip), vehicle: saline 103 % of control | dose: 100.0 mg/kg/injection, schedule: Q01DX009 (ip), vehicle: saline 114 % of control
